“And” between values parts separate entries of the source, which are not always exact repeats. Identical values can stand only once. Like-named read-outs stand apart in the source and are kept apart here.
What was measured:
[1] = In vivo pharmacokinetics after intratracheal instillation; set-up: species or system mouse; conditions: for Kp / Cmax / AUC(0-t) / MRT / Tmax / half-life / CL/F / Vd/F / AUC: male, CD1, mouse, inhaled or intranasal; for Kp: BALF and plasma, read-out: AUC ratio BALF/Plasma; for Vd/F: read-out: Vz/F_obs
Method: 6.2. PK Sample Preparation and Analysis
Groups of male CD1 mice (25-30 g, Charles River UK) were housed in groups of up to 6 and maintained under a 12 h light/dark cycle with free access to food and water. Temperature and humidity were controlled according to U.K. HO regulations. On the day of the study, mice were briefly anaesthetized with isoflurane before suspending the mouse by its upper incisors on a board held at an angle of approx. 45 degrees. Mice were then dosed intratracheally with the compound (4 or Tob) at the designated does formulated in ethanol/tyloxapol/glycerol/phosphate-buffered saline (PBS) [10:1:5:84] in a 1 mL/kg dosing volume up to a maximum of 30 µL per mouse. A laryngoscope was used to facilitate dosing.
Animals were allowed to recover before replacing into their home cages. […]
Blood samples were placed in tubes on ice containing EDTA anticoagulant. After gentle mixing, samples were centrifuged (10,000 rpm x 3 min) and two 50 μL aliquots taken into fresh tubes that were immediately frozen on dry ice. Following blood sample collection, tracheas were exposed and a small incision made. An 18 Gauge plastic tube was then inserted through the incision into the trachea and tied in place. Aliquots of 0.8 mL of sterile saline were then infused into and then withdrawn from the lungs and the collected bronchoalveolar lavage (BAL) sample placed into a tube. This process was repeated two more times, and the samples from each mouse pooled. The resulting samples were weighed and mixed, before a 1 mL aliquot was taken for analysis and frozen on dry ice.
Immediately after collecting the final BALF sample, lung samples were excised and excess tissue removed, before rinsing in saline, blotting and weighing. Samples were then snap frozen by immersion in liquid nitrogen. All samples were stored at -20 °C until sent for […]
All PK plasma samples were analyzed via HPLC-MS/MS using an Agilent 1290 Infinity II HPLC system coupled to an AB Sciex QTrap 6500plus mass spectrometer. First, a calibration curve was prepared by spiking different concentrations of compound 4 or Tob (Fa. Sigma) into plasma, homogenized lung from CD-1 mice or 0.9% sodium chloride solution as matrix for broncheoalveolar lavage fluid (BALF). The lower limits of quantification are indicated in Table S5. Caffeine was used as internal standard. In addition, quality control samples (QCs) were prepared for 4 and Tob in plasma, homogenized lung and 0.9% sodium chloride […]
The following extraction procedure was used for 4: plasma: 7.5 µL of a plasma sample (calibration samples, QCs or PK samples) was extracted with 37.5 µL of acetonitrile containing 12.5 ng/mL caffeine as internal standard for 10 min at 2000 rpm on an Eppendorf MixMate® vortex mixer. Lung: homogenized samples were diluted to 50 mg/mL lung tissue in 0.9% sodium chloride solution. A 50 µL of a lung sample (calibration samples, QCs or PK samples) was extracted with 15 µL water containing 10% formic acid and 50 µL of acetonitrile containing 12.5 ng/mL caffeine as internal standard for 10 min at 2.000 rpm on an Eppendorf MixMate® vortex mixer. BALF: 200 µL of methanol were added to 100 µL of a BALF sample (calibration samples, QCs or PK samples). Samples were concentrated in an Eppendorf concentrator until dryness at 30 °C. A 30 µL of water containing 10% formic acid

[2] = Metabolic stability, human liver S9; assay type: in vitro ADME
Method: For the evaluation of combined phase I and phase II metabolic stability, the compound (1 μM) was incubated with 1 mg/mL pooled liver S9 fraction from the respective species (Xenotech), […]
2 mM NADPH, 1 mM UDPGA, 10 mM MgCl2, 5 mM GSH and 0.1 mM PAPS at 37 °C for […]
0, 5, 15, 30 or 60 min. The metabolic stability of Testosterone (1 μM) and verapamil (1 μM) […]
were determined in parallel to confirm the enzymatic activity of the S9 fraction. The […]
incubation was stopped by precipitation of S9 enzymes with 2 volumes of cold acetonitrile […]
containing internal standard (750 nM Diphenhydramine). Samples were stored on ice for 10 […]
min and precipitated protein was removed by centrifugation (10 min, 4 °C, 17,000 g).
Concentration of the remaining test compound at the different time points was analyzed by […]
LC-MS/MS (TSQ Quantum Access MAX, Thermo Fisher, Dreieich, Germany) and used to […]
determine half-life (t1/2). Stability of compound 4 in further S9 fractions are summarized in […]
Table S4. Metabolic stability studies in various S9 fractions. […]

β2 receptor = biological target: T1, β2 receptor (Homo sapiens, UniProt P07550); assay: CEREP off-target panel, antagonist radioligand; assay type: binding; conditions: @10µM
T1 construct: Eurofins Discovery (SafetyScreen44 Panel, Cerep) P270
Method: (§1) 5. In vitro ADME/T and Safety Pharmacology
(§2) 5.1. CEREP off-targets assay
(§3) Experiments towards possible off-target effects were conducted following Eurofins Discovery protocol. Detailed information about the assays can be found in: https://www.eurofinsdiscoveryservices.com/catalogmanagement/viewitem/SafetyScreen44- […]
(§4) Table S3. Possible CEREP off-targets. entry off-target QSI 4 QSI 17 Assay
(§5) (%binding (%binding method
(§6) (1 picture or pasted object on this page, not shown here)

Dopamine transporter = biological target: T2, Dopamine transporter (Homo sapiens, UniProt Q01959); assay: CEREP off-target panel, antagonist radioligand; assay type: binding; conditions: @10µM
T2 construct: Eurofins Discovery (SafetyScreen44 Panel, Cerep) P270
Method: as §1, §2, §3, §4, §5, §6

α1A receptor = biological target: T3, α1A receptor (Homo sapiens, UniProt P35348); assay: CEREP off-target panel, antagonist radioligand; assay type: binding; conditions: @10µM
T3 construct: Eurofins Discovery (SafetyScreen44 Panel, Cerep) P270
Method: as §1, §2, §3, §4, §5, §6

[3] = biological target: T4, Norepinephrine transporter (Homo sapiens, UniProt P23975); assay: CEREP off-target panel, antagonist radioligand; assay type: binding; conditions: @10µM
T4 construct: Eurofins Discovery (SafetyScreen44 Panel, Cerep) P270
Method: as §1, §2, §3, §4, §5, §6

[4] = system: Ca2+ channel (L, dihydropyridine site); assay: CEREP off-target panel, antagonist radioligand; assay type: binding; conditions: @10µM
Method: as §1, §2, §3, §4, §5, §6

Na+ channel (site 2) = assay: CEREP off-target panel, antagonist radioligand; assay type: binding; conditions: @10µM
Method: as §1, §2, §3, §4, §5, §6

[5] = BALF, 0.5 mg kg^−1, mice, intratracheal, BALF, read-out: Cmax BALF
[6] = BALF, mice, intratracheal, Figure 3B, read-out: BALF: AUC0-t
[7] = ELF (calculated from BALF), 0.5 mg kg^−1, mice, intratracheal, ELF calculated from BALF, read-out: Cmax ELF
[8] = 0.5 mg kg^−1, mice, intratracheal, BALF, read-out: AUC0-t BALF
[9] = 0.5 mg kg^−1, mice, intratracheal, BALF, read-out: MRT BALF
[10] = 0.5 mg kg^−1, mice, intratracheal, BALF, read-out: Tmax BALF
[11] = 0.5 mg kg^−1, mice, intratracheal, ELF calculated from BALF, read-out: AUC0-t ELF
[12] = 0.5 mg kg^−1, mice, intratracheal, ELF calculated from BALF, read-out: MRT ELF
[13] = 0.5 mg kg^−1, mice, intratracheal, ELF calculated from BALF, read-out: Tmax ELF
[14] = 0.5 mg kg^−1, mice, intratracheal, ELF calculated from BALF, read-out: t1/2 ELF (converted)
[15] = 0.5 mg kg^−1, mice, intratracheal, lung tissue, read-out: MRT lung
[16] = 0.5 mg kg^−1, mice, intratracheal, lung tissue, read-out: Tmax lung
[17] = 0.5 mg kg^−1, mice, intratracheal, lung tissue, read-out: t1/2 lung (converted)
[18] = 0.5 mg kg^−1, mice, intratracheal, plasma
[19] = 0.5 mg kg^−1, mice, intratracheal, plasma, read-out: AUC0-t plasma
[20] = 0.5 mg kg^−1, mice, intratracheal, plasma, read-out: MRT plasma
[21] = 0.5 mg kg^−1, mice, intratracheal, plasma, read-out: Tmax plasma
[22] = mice, intratracheal (QSI 4 0.5 mg kg^−1), plasma, read-out: t1/2 plasma (converted)
[23] = mice, intratracheal, BALF, read-out: t1/2 BALF (converted)
[24] = plasma, 0.5 mg kg^−1, mice, intratracheal, plasma, read-out: Cmax plasma
[25] = plasma, mice, intratracheal, Figure 3B, read-out: Plasma: AUC0-t
[26] = pooled human liver S9 fraction, Table 2, read-out: Metabolic stability t 1/2 S9 human

T1 sequence (P07550 whole entry): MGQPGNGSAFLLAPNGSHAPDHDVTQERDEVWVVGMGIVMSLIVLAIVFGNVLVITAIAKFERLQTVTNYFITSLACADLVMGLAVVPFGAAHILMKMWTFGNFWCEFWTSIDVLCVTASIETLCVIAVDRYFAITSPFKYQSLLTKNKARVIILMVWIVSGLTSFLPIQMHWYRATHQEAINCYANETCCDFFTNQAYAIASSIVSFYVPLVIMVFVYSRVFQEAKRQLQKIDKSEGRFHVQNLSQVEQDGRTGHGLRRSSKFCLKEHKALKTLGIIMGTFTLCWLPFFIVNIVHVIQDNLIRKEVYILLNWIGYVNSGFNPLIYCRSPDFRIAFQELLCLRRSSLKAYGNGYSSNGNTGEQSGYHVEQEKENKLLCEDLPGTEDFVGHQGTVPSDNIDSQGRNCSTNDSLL
T2 sequence (Q01959 whole entry): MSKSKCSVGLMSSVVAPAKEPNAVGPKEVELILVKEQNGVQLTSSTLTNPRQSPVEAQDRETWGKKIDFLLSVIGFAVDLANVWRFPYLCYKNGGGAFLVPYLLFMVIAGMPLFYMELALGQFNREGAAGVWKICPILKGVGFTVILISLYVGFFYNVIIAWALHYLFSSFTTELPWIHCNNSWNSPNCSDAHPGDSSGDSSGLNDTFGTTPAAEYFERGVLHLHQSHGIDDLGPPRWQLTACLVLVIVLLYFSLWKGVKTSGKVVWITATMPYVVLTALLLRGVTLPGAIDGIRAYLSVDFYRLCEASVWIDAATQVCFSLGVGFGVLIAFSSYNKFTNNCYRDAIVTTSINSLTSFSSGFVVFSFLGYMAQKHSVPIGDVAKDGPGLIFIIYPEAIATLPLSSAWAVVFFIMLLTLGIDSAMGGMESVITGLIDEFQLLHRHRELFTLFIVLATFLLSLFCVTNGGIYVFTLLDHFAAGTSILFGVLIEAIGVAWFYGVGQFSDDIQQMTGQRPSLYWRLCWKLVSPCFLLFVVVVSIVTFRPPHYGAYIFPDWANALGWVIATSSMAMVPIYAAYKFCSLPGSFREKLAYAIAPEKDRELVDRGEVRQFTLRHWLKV
T3 sequence (P35348 whole entry): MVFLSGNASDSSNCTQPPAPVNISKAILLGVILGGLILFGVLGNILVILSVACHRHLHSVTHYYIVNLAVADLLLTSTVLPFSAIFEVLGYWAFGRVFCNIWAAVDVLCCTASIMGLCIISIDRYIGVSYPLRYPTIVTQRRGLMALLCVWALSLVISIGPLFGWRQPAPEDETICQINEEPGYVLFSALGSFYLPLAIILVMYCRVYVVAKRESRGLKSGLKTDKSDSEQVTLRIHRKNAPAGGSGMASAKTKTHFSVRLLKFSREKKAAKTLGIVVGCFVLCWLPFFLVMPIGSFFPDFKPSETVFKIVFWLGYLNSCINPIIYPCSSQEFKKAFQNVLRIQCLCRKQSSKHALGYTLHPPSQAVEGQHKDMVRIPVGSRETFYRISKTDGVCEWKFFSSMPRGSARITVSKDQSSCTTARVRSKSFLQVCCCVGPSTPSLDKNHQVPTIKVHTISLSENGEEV
T4 sequence (P23975 whole entry): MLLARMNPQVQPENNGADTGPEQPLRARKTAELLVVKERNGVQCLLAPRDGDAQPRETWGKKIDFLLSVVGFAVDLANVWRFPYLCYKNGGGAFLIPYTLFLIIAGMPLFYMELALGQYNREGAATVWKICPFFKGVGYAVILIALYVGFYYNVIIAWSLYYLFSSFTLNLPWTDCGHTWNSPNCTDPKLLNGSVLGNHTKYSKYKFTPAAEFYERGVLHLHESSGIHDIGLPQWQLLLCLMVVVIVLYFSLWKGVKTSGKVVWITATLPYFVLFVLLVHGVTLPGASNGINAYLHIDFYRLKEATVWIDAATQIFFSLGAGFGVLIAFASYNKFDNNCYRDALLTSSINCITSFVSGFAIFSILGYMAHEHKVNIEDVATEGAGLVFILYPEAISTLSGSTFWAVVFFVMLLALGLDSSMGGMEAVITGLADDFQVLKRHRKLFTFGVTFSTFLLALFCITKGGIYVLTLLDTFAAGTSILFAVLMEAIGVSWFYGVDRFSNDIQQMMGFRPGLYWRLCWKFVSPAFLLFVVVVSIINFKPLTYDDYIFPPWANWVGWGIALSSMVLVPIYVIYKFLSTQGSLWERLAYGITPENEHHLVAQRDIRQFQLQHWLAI

Row | SMILES | Kp ([1]; mice, intratracheal) | Cmax [1, 5] | AUC(0-t) [1, 6] [ng·h/mL] | Cmax [1, 7] | AUC(0-t) [1, 8] | MRT [1, 9] [min] | Tmax [1, 10] [min] | AUC(0-t) [1, 11] | MRT [1, 12] [min] | Tmax [1, 13] [min] | half-life [1, 14] [min] | MRT [1, 15] [min] | Tmax [1, 16] [min] | half-life [1, 17] [min] | CL/F [1, 18] [mL/min/kg] | AUC(0-t) [1, 19] | MRT [1, 20] [min] | Tmax [1, 21] [min] | Vd/F [1, 18] [L/kg] | half-life [1, 22] [min] | also measured
1 | NC[C@H]1O[C@H](O[C@H]2[C@H](O)[C@@H](O[C@H]3O[C@H](CO)[C@@H](O)[C@H](N)[C@H]3O)[C@H](N)C[C@@H]2N)[C@H](N)C[C@@H]1O [Tobramycin, tobramycin] | 3.2 | 215 ng/mL and 460 nM | 268 ± 27 | 38.8 ng/mL and 83 nM | 268 ng·h/mL and 0.57 µM·h | 84 ± 6 | 30 | 57.5 ng·h/mL and 0.12 µM·h | 90 ± 12 | 30 | 33.6 ± 12 | 116 | 30 | 67.8 | 45.3 ± 26.6 | 83.2 ng·h/mL and 0.178 µM·h | 87 ± 72 | 30 | 2.25 ± 1.6 | 45.6 ± 48 | half-life [1, 23]: 49.2 ± 6 min; Cmax [1, 24]: 89.5 ng/mL and 191 nM; AUC(0-t) [1, 25]: 83.2 ± 35.3 ng·h/mL; Cmax BALF ([1]; mice, intratracheal, BALF): 215.4 ± 50 ng/mL
2 | COc1ccc(-n2cc(CNc3ccnc(C(F)(F)F)c3)nn2)cc1Cl [Compound 17] | – | – | – | – | – | – | – | – | – | – | – | – | – | – | – | – | – | – | – | – | half-life at 1 μM [2, 26]: 42 min; % binding, β2 receptor (β2 receptor): 85.3% and 85%; % binding, Dopamine transporter (Dopamine transporter): 28.91%; % binding, α1A receptor (α1A receptor): 55.42%; % binding, Norepinephrine transporter [3]: 8.58%; % binding, Ca2+ channel (L, dihydropyridine site) [4]: 30.36%; % binding, Na+ channel (site 2) (Na+ channel (site 2)): -27.90%
3 | FC(F)(F)c1cc(NCc2cn(-c3ccc(Oc4ccccc4)cc3)nn2)ccn1 [Compound 4] | 86.9 | 3770 ng/mL and 9.2 µM | 4840 ± 2180 | 1290 ng/mL and 3.1 µM | 4840 ng·h/mL and 11.8 µM·h | 94.2 ± 6 | 30 | 3100 ng·h/mL and 7.5 µM·h | 96.6 ± 66 | 100 ± 120 | 33 ± 18 | 76.2 ± 24 | 30 | 64.8 ± 30 | 157 ± 55.5 | 55.8 ng·h/mL and 0.135 µM·h | 72 ± 6 | 30 | 10.5 ± 1.2 | 51.6 ± 24 | half-life at 1 μM [2, 26]: 169 min; half-life at 1 μM ([2]; pooled liver S9 fraction, Table S4, read-out: t1/2 human liver S9): 67.6 ± 9 min; Cmax ([1]; BALF, 0.5 mg/kg, mice, intratracheal 0.5 mg kg^−1, BALF, read-out: C max in BALF): 3770 ± 2660 ng/mL; AUC ([1]; mice, intratracheal 0.5 mg kg^−1, BALF, read-out: AUC0‐t BALF): 4840 ± 2180 ng·h/mL; AUC ([1]; mice, intratracheal 0.5 mg kg^−1, ELF, read-out: AUC0‐t ELF): 3100 ± 330 ng·h/mL; AUC ([1]; mice, intratracheal 0.5 mg kg^−1, plasma, read-out: AUC0‐t plasma): 55.8 ± 21.3 ng·h/mL; half-life [1, 23]: 43.2 ± 30 min; Cmax [1, 24]: 62.6 ng/mL and 151 nM; Cmax ([1]; plasma, 0.5 mg/kg, mice, intratracheal 0.5 mg kg^−1, plasma, read-out: plasma C max): 62.6 ± 45.7 ng/mL; AUC(0-t) [1, 25]: 55.8 ± 21.3 ng·h/mL; % binding, β2 receptor (β2 receptor): 18.03% and 18%; % binding, Dopamine transporter (Dopamine transporter): 97.25%; % binding, α1A receptor (α1A receptor): 40.59%; % binding, Norepinephrine transporter [3]: 82.52%; % binding, Ca2+ channel (L, dihydropyridine site) [4]: 78.29%; % binding, Na+ channel (site 2) (Na+ channel (site 2)): 54.62%
